Results taken from patent US9700638B2, “Near infrared label and methods of use thereof” (priority 2013, dated 2017).
Where two headings read alike, the source gives them in different places.

Legend:
[1] = reference chromophores with known molar absorptivity; cited from earlier work
[2] = Light absorption / molar absorptivity of DDAO and 7-aminoDDAO derivatives; format: physicochemical; details: for light absorption maximum: FIG. 4, 50% MeOH
Description: (§1) The molar extinction of 7-aminoDDAO (55 000 M-1 cm-1) was determined by the attachment of reference chromophores with known molar absorptivity (Table 1). Light absorption spectra of the labeled caspofungin and posaconazole derivatives were close to superposition of those for the 7-(4-aminobutyl)amino-DDAO and the corresponding drugs, which is illustrated in FIG. 4 on the example of posaconazole derivative. […] Thus, excitation and emission maxima for DDAO were 653 nm and 660 nm correspondingly, while for 7-(4-aminobutyl)amino-DDAO they shifted to 671 nm and 679 nm correspondingly. […] Remarkably, the shape of the excitation spectrum curve for ionized form of DDAO was the same in 50% and 100% methanol.

[3] = Fluorescence spectra, relative brightness and quantum yield in various solvents; format: physicochemical; parameters: brightness: unit not given here; details: for QY (50% MeOH), quantum yield / RB (50% MeOH), relative brightness / QY (MeOH), quantum yield / RB (MeOH), relative brightness / QY (H20), quantum yield / RB (H2O), relative brightness: 1 μM; for increase of light emission in 50% methanol compared to water: 50% methanol vs water; for QY (H20), quantum yield / RB (H2O), relative brightness: H2O; for increase of emission in 100% methanol compared to 50% methanol: 100% methanol vs 50% methanol
Description: as §1
However, posaconazole derivative behaved differently. […] The suppression of the fluorophore light emission in posaconazole derivative is likely due to the presence of extended light-absorbing moiety that can stack to the fluorophore, causing contact quenching (FIG. 7). […] in fluorescence is expected upon interaction of the labeled drug with its cellular target, whereby stacking interactions of the fluorophore with the drug moiety have to be destroyed (FIG. 7B). This beneficial “signaling” effect is expected to greatly increase the contrast of imaging by minimizing the background signal of non-bound compound, which remains “dark”.
Table 2 illustrates light emission properties of DDAO-based diagnostic probes and reference compounds, and presents the data on quantum yield and brightness for 7-aminoDDAO compound at various conditions. These parameters were determined using a reference fluorophore Cy5.5, (which has the excitation and emission maxima nearly identical to those for 7-aminoDDAO) and published data for original DDAO fluorophore. […] This was perhaps due to higher light absorptivity and higher quantum yield of the amino-derivative. The difference in brightness further increased in 50% methanol (21 000 and 9000 correspondingly).

[4] = Chemical and photochemical stability of the fluorophore; format: physicochemical
Candida albicans = assay: Imaging of fungal infection in mice kidneys by whole-body fluorescence imaging; format: in vivo
Description: Mice were infected via intravenous inoculation with 5*10^5 CFU of wild type Candida albicans and an infection that occurs most prominently in the kidneys. After 48 hours post infection, a fixed concentration of 0.12 ug/mL of CSF-DDAO is added via tail vein injection at 0, 2, 4 and 8 hours to assess the optimal time for visualization of the infection. At each time point, the mice were imaged in a non-invasive whole-body animal imaging system to detect fluorescence energy. Animals infected with Candida albicans show proliferation of the fungal infection in the kidneys after 48 hours. […] Maximum labeling occurred at 8 hours. […] At the same time no signal was detected in uninfected and/or untreated organs.

[5] = listed as 7-(4-aminobutyl)amino-DDAO

Molecule | Molar absorption for attached compounds [1] | molar absorbance [2] | ε [2] | light absorption maximum [2] [nm] | brightness [3] | pH dependence of the fluorophore [3] | QY (50% MeOH), quantum yield [3] | RB (50% MeOH), relative brightness [3] | increase of light emission in 50% methanol compared to water [3] | QY (MeOH), quantum yield ([3]; 100% MeOH) | RB (MeOH), relative brightness ([3]; 100% MeOH) | QY (H20), quantum yield [3] | RB (H2O), relative brightness [3] | increase of emission in 100% methanol compared to 50% methanol [3] [fold] | also measured
Cc1cc(C)n2c1C=C1C=CC(CCC(=O)O)=[N+]1[B-]2(F)F [BODIPY-FL] | 82,000 M^−1cm^−1 |  |  |  |  |  |  |  |  |  |  |  |  |  | 
CC1(C)C2=C(Cl)C(=O)C(Cl)=CC2=Nc2ccc(NCCCCN)cc21 [DDAO NH2, DDAO—NH—(CH2)4—NH2] |  | 53,000 | 53,000 M^−1cm^−1 | 673 | 6,000 | pH-independent | 0.40 | 21,000 | ca. 2.5 fold | 0.25 | 13,000 | 0.19 | 10,000 |  | Calculated molar absorption for DDAO residue ([2]; attached compound BODIPY-FL): 70,000 M^−1cm^−1; Calculated molar absorption for DDAO residue ([2]; attached compound DNP): 32,000 M^−1cm^−1; Calculated molar absorption for DDAO residue ([2]; attached compound Posaconazole): 59,000 M^−1cm^−1; Calculated molar absorption for DDAO residue, Average ([2]; average over three attached chromophores): 53,000 M^−1cm^−1; molar extinction ([2]; determined by attachment of reference chromophores): 55 000 M-1 cm-1; long-wavelength emission range [3]: 640-700 nm; RB (50% MeOH), relative brightness ([3]; listed as 7-aminoDDAO): 21 000; emission maximum in 100% MeOH ([3]; 100% MeOH): 670 nm; excitation maximum in 100% MeOH ([3]; 100% MeOH): 620 nm; drop of light emission intensity in 100% MeOH ([3]; 100% MeOH vs 50% methanol): 1.7 fold; RB (MeOH), relative brightness ([3]; 100% MeOH, listed as 7-aminoDDAO): 13 000; RB (H2O), relative brightness ([3]; listed as 7-aminoDDAO): 10 000; emission maximum [3, 5]: 679 nm; excitation maximum [3, 5]: 671 nm; emission maximum ([3]; listed as 7-aminoDDAO): 680 nm; emission maximum ([3]; listed as 7-aminoDDAP): 680 nm; excitation maximum ([3]; listed as 7-aminoDDAP): 670 nm; chemical and photochemical stability [4]: chemically and photochemically stable
CC1(C)C2=C(Cl)C(=O)C(Cl)=CC2=Nc2ccc(O)cc21 [DDAO, 7-hydroxy-9H-(1,3-dichloro-9,9-dimethylacridin-2-one), reference compound] |  | 48,000 | 48,000 M^−1cm^−1 | 653 | 3,600 | pH-dependent | 0.19 | 9000 |  | 0.25 | 12 000 | 0.125 | 6 000 | 1.3 | emission maximum [3]: 660 nm; excitation maximum [3]: 653 nm; RB (50% MeOH), relative brightness ([3]; listed as DDAO (pH 9.0)): 9,000; RB (MeOH), relative brightness ([3]; 100% MeOH, listed as DDAO (pH 9.0)): 12,000; RB (H2O), relative brightness ([3]; listed as DDAO (pH 9.0)): 6,000
CC[C@@H]([C@H](C)O)n1ncn(-c2ccc(N3CCN(c4ccc(OC[C@@H]5CO[C@@](Cn6cncn6)(c6ccc(F)cc6F)C5)cc4)CC3)cc2)c1=O [Posaconazole] | 34,000 M^−1cm^−1 |  |  |  |  |  |  |  |  |  |  |  |  |  | 
DDAO—NH—(CH2)4—NCS-Caspofungin [DDAO Casp] |  |  | 53,000 M^−1cm^−1 |  |  |  | 0.26 | 13,800 | 2 fold | 0.42 | 22,000 | 0.11 | 6,000 | 1.3 | fluorescent signal of the infected organ (kidney) (Candida albicans; C. albicans infected mice kidney, FIG. 8): bright fluorescent signal; labeling of cells in the target organs over time (Candida albicans; infected mice, whole body imaging at 0, 2, 4 and 8 hours): progressive labeling of cells in the target organs over time; time of maximum labeling after probe injection (Candida albicans; mice 48 h post i.v. infection with C. albicans, 0.12 ug/mL via tail vein, whole body imaging): 8 h; accumulation in the kidneys in the absence of infection (Candida albicans; uninfected mice): did not accumulate in the kidneys
